Data as given in the supplement of paper PMC10307832.

Columns and labels:
Test in all cases: relative viability (nuclei count vs DMSO), 5 days (fraction); higher = more cells survive
A549 = tested on: A549
Outline: (§1)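 Lung cancer cell lines in 1536-well plates got either a single drug or a fixed anchor-drug dose together with five library-drug doses (not always all listed) in √10 steps, by pin tool, on the day after seeding. Nuclei were counted after 5 days, and relative viability is the treated-to-vehicle ratio of nuclei counts. Values are medians of duplicate plates.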

Calu-6 = tested on: Calu-6
Outline: as §1

EBC-1 = tested on: EBC-1
Outline: as §1

HCC-78 = tested on: HCC-78
Outline: as §1

IA-LM = tested on: IA-LM
Outline: as §1

NCI-H1299 = tested on: NCI-H1299
Outline: as §1

NCI-H1703 = tested on: NCI-H1703
Outline: as §1

NCI-H2009 = tested on: NCI-H2009
Outline: as §1

NCI-H358 = tested on: NCI-H358
Outline: as §1

NCI-H460 = tested on: NCI-H460
Outline: as §1

NCI-H661 = tested on: NCI-H661
Outline: as §1

With `Cc1sc2c(c1C)C(c1ccc(Cl)cc1)=N[C@@H](CC(=O)OC(C)(C)C)c1nnc(C)n1-2` [JQ1] + CS(=O)(=O)N1CCN(Cc2cc3nc(-c4cccc5[nH]ncc45)nc(N4CCOCC4)c3s2)CC1 [Pictilisib] (partner 1 µM) the relative viability (A549; first compound 0.04 µM) was 0.511, the relative viability (A549; first compound 0.1265 µM) was 0.421 and the relative viability (A549; first compound 0.4 µM) was 0.35. The relative viability (A549; first compound 1.265 µM) was 0.253, the relative viability (A549; first compound 4 µM) was 0.185 and the relative viability (Calu-6; first compound 0.04 µM) was 0.972. For the same molecule, the relative viability (Calu-6; first compound 0.1265 µM) was 0.826, the relative viability (Calu-6; first compound 0.4 µM) was 0.897 and the relative viability (Calu-6; first compound 1.265 µM) was 0.468. For the same molecule, the relative viability (Calu-6; first compound 4 µM) was 0.372, the relative viability (EBC-1; first compound 0.04 µM) was 0.31 and the relative viability (EBC-1; first compound 0.1265 µM) was 0.245. For the same molecule, the relative viability (EBC-1; first compound 0.4 µM) was 0.15, the relative viability (EBC-1; first compound 1.265 µM) was 0.11 and the relative viability (EBC-1; first compound 4 µM) was 0.156. For the same molecule, the relative viability (HCC-78; first compound 0.04 µM) was 0.212, the relative viability (HCC-78; first compound 0.1265 µM) was 0.313 and the relative viability (HCC-78; first compound 0.4 µM) was 0.185. For the same molecule, the relative viability (HCC-78; first compound 1.265 µM) was 0.214, the relative viability (HCC-78; first compound 4 µM) was 0.192 and the relative viability (IA-LM; first compound 0.04 µM) was 0.278. It also gave a relative viability (IA-LM; first compound 0.1265 µM) of 0.103, a relative viability (IA-LM; first compound 0.4 µM) of 0.0998 and a relative viability (IA-LM; first compound 1.265 µM) of 0.0879. For the same molecule, the relative viability (IA-LM; first compound 4 µM) was 0.0786, the relative viability (NCI-H1299; first compound 0.04 µM) was 0.691 and the relative viability (NCI-H1299; first compound 0.1265 µM) was 0.482. It also gave a relative viability (NCI-H1299; first compound 0.4 µM) of 0.219, a relative viability (NCI-H1299; first compound 4 µM) of 0.104 and a relative viability (NCI-H1703; first compound 0.04 µM) of 0.234. It also gave a relative viability (NCI-H1703; first compound 0.1265 µM) of 0.212, a relative viability (NCI-H1703; first compound 0.4 µM) of 0.238 and a relative viability (NCI-H1703; first compound 1.265 µM) of 0.21. For the same molecule, the relative viability (NCI-H1703; first compound 4 µM) was 0.216, the relative viability (NCI-H2009; first compound 0.04 µM) was 0.767 and the relative viability (NCI-H2009; first compound 0.1265 µM) was 0.534. For the same molecule, the relative viability (NCI-H2009; first compound 0.4 µM) was 0.33, the relative viability (NCI-H2009; first compound 1.265 µM) was 0.205 and the relative viability (NCI-H2009; first compound 4 µM) was 0.245. For the same molecule, the relative viability (NCI-H358; first compound 0.04 µM) was 0.329, the relative viability (NCI-H358; first compound 0.1265 µM) was 0.431 and the relative viability (NCI-H358; first compound 0.4 µM) was 0.376. The relative viability (NCI-H358; first compound 1.265 µM) was 0.386, the relative viability (NCI-H358; first compound 4 µM) was 0.336 and the relative viability (NCI-H460; first compound 0.04 µM) was 0.398. The relative viability (NCI-H460; first compound 0.4 µM) was 0.276, the relative viability (NCI-H460; first compound 1.265 µM) was 0.204 and the relative viability (NCI-H460; first compound 4 µM) was 0.135. It also gave a relative viability (NCI-H661; first compound 0.04 µM) of 0.426, a relative viability (NCI-H661; first compound 0.1265 µM) of 0.326 and a relative viability (NCI-H661; first compound 0.4 µM) of 0.337. For the same molecule, the relative viability (NCI-H661; first compound 1.265 µM) was 0.365 and the relative viability (NCI-H661; first compound 4 µM) was 0.294.

In the case of `CC(=O)O[C@@]12CO[C@@H]1C[C@H](O)[C@@]1(C)C(=O)[C@H](O)C3=C(C)[C@@H](OC(=O)[C@H](O)[C@@H](NC(=O)OC(C)(C)C)c4ccccc4)C[C@@](O)([C@@H](OC(=O)c4ccccc4)[C@H]21)C3(C)C` [Docetaxel] + C[C@@H](Oc1cc(-c2cnn(C3CCNCC3)c2)cnc1N)c1c(Cl)ccc(F)c1Cl [Crizotinib] (partner 1 µM), the relative viability (A549; first compound 0.0002 µM) is reported as 0.641, the relative viability (A549; first compound 0.000632 µM) is reported as 0.432 and the relative viability (A549; first compound 0.002 µM) is reported as 0.0535. It also gave a relative viability (A549; first compound 0.006325 µM) of 0.0545, a relative viability (A549; first compound 0.02 µM) of 0.0485 and a relative viability (Calu-6; first compound 0.0002 µM) of 0.805. The relative viability (Calu-6; first compound 0.000632 µM) was 0.394, the relative viability (Calu-6; first compound 0.002 µM) was 0.219 and the relative viability (Calu-6; first compound 0.006325 µM) was 0.159. For the same molecule, the relative viability (Calu-6; first compound 0.02 µM) was 0.105, the relative viability (EBC-1; first compound 0.0002 µM) was 0.187 and the relative viability (EBC-1; first compound 0.000632 µM) was 0.146. The relative viability (EBC-1; first compound 0.002 µM) was 0.167, the relative viability (EBC-1; first compound 0.006325 µM) was 0.163 and the relative viability (EBC-1; first compound 0.02 µM) was 0.151. For the same molecule, the relative viability (HCC-78; first compound 0.0002 µM) was 0.33, the relative viability (HCC-78; first compound 0.000632 µM) was 0.32 and the relative viability (HCC-78; first compound 0.002 µM) was 0.245. The relative viability (HCC-78; first compound 0.006325 µM) was 0.308, the relative viability (HCC-78; first compound 0.02 µM) was 0.223 and the relative viability (IA-LM; first compound 0.0002 µM) was 0.395. It also gave a relative viability (IA-LM; first compound 0.000632 µM) of 0.145, a relative viability (IA-LM; first compound 0.002 µM) of 0.0955 and a relative viability (IA-LM; first compound 0.006325 µM) of 0.078. The relative viability (IA-LM; first compound 0.02 µM) was 0.0873, the relative viability (NCI-H1299; first compound 0.0002 µM) was 0.972 and the relative viability (NCI-H1299; first compound 0.000632 µM) was 0.984. The relative viability (NCI-H1299; first compound 0.002 µM) was 0.695, the relative viability (NCI-H1299; first compound 0.006325 µM) was 0.392 and the relative viability (NCI-H1299; first compound 0.02 µM) was 0.305. It also gave a relative viability (NCI-H1703; first compound 0.0002 µM) of 0.483, a relative viability (NCI-H1703; first compound 0.000632 µM) of 0.379 and a relative viability (NCI-H1703; first compound 0.002 µM) of 0.226. It also gave a relative viability (NCI-H1703; first compound 0.006325 µM) of 0.0913, a relative viability (NCI-H1703; first compound 0.02 µM) of 0.133 and a relative viability (NCI-H2009; first compound 0.0002 µM) of 0.95. It also gave a relative viability (NCI-H2009; first compound 0.000632 µM) of 1.03, a relative viability (NCI-H2009; first compound 0.002 µM) of 0.426 and a relative viability (NCI-H2009; first compound 0.006325 µM) of 0.252. It also gave a relative viability (NCI-H2009; first compound 0.02 µM) of 0.174, a relative viability (NCI-H358; first compound 0.0002 µM) of 0.383 and a relative viability (NCI-H358; first compound 0.000632 µM) of 0.342. It also gave a relative viability (NCI-H358; first compound 0.002 µM) of 0.16, a relative viability (NCI-H358; first compound 0.02 µM) of 0.116 and a relative viability (NCI-H460; first compound 0.0002 µM) of 0.73. The relative viability (NCI-H460; first compound 0.000632 µM) was 0.673, the relative viability (NCI-H460; first compound 0.002 µM) was 0.0086 and the relative viability (NCI-H460; first compound 0.006325 µM) was 0.0137. For the same molecule, the relative viability (NCI-H460; first compound 0.02 µM) was 0.0093, the relative viability (NCI-H661; first compound 0.000632 µM) was 1.06 and the relative viability (NCI-H661; first compound 0.002 µM) was 0.914. It also gave a relative viability (NCI-H661; first compound 0.006325 µM) of 0.68 and a relative viability (NCI-H661; first compound 0.02 µM) of 0.503.
